“Also recorded” adds a separate entry of the source.
How the values were obtained:
[1] = CIA (collagen induced arthritis) model; assay type: in vivo, DBA1/J mice; details: paw histopathology
[2] = system: ABC DLBCL cell-line OCI-Ly10; test: DLBCL xenograft model, OCI-Ly10 tumor; assay type: in vivo, mice (NSG); details: 6 or 12 mg/kg IP once daily, started 13 days after transplantation
Method: (§1) Tumors were engrafted in 6- to 8-week-old female NOD.Cg-Prkdc^scid I12rg^tm1Wj1/SzJ (NSG) mice by subcutaneous injection of 4×10^6 tumor cells (OCI-Ly10 or Su-DHL-6) resuspended in matrigel (BD). Both tumors were engrafted simultaneously on opposite flanks of individual mice, with four mice for each treatment group. […] A daily application of 150 or 300 μg of compound per animal (˜25 g) was used, corresponding to approximately 6 or 12 mg/kg, respectively. The tumor size was measured every other day after visual appearance using a caliper and calculated as square millimeters (length×width). Mice were sacrificed when the tumors were above 250 mm^2 and statistical data was analyzed with a two-way ANOVA test.
(§2) In the DLBCL xenograft model NSG mice were subcutaneously injected with the MALT1-dependent ABC DLBCL cell line OCI-Ly10 and the MALT1-independent GCB DLBCL cell-line Su-DHL6 in opposing flanks of individual mice.

[3] = Racemization check by chiral HPLC; assay type: physicochemical
Method: Enantiomeric purity of the thioridazine and mepazine enantiomers was determined by comparison to commercially available racemates using a ChiralPak IA 250×4.6 mm (L×I.D.) […] tris(3,5-dimethylphenylcarbamate) column. For thioridazine an isocratic gradient of 1% ethanol in hexane containing 0.1% diethylamine modifier was used. In the case of mepazine an isocratic gradient of 1% isopropanol in hexane containing 0.1% diethylamine modifier was used. Both were run at 1 ml/min.
(S)-Mepazine provided a single peak by Chiral HPLC under conditions in which the individual enantiomers are resolved.

[4] = Chronic progressive EAE (experimental allergic encephalomyelitis) model; assay type: in vivo, C57Bl/6 mice
Method: For the EAE model first 1 mg/ml MOG35-55 peptides (MOG: myelin/oligodendrocyte glycoprotein; accession no. AAF74786) were emulsified 1:1 in Complete Freund's Adjuvant (CFA, incl. 5 mg/ml heat-killed M. tuberculum H37RA). On day one female C57Bl/6 mice (8-10 weeks old) were subcutaneously treated with 0.1 ml of MOG/CFA (0.1 mg MOG/0.25 mg CFA per mouse) in both flanks. In addition 0.2 ml pertussis toxin ([…]) was intraperitoneally injected immediately after (200 ng per mouse), followed by a second injection the day after. […] The clinical score of the mice was determined according to the following parameters: Score 0=no obvious signs of motor dysfunction in mice compared to non-immunized control; 0.5—distal tail limpness; 1=limp or floppy tail; 2=limp tail and weakness in hind legs; 3=limp tail and complete paralysis of hind legs OR limp tail with paralysis of one front and one hind leg; 4=limp tail, complete hind leg and partial front leg paralysis; 5=complete hind and complete front leg paralysis, no movement around cage OR mouse is spontaneously rolling in cage OR mouse found dead due to paralysis.
At the end of the study mice were euthanized and blood serum and also the brain and the spinal cord was collected for a histopathology analysis. Here foci of inflammatory cell infiltrate (at least 50 μm) into the spinal cord were counted and scored using the following criteria: 0=normal; 0.5 very minimal; 1=minimal, 2-4 generally less than 100 μm width/length; 2=mild, 5-7 small discreet foci; 3=moderate, 8-10 small plus larger coalescing areas; 4=marked, 11-13 small plus larger coalescing areas; 5=severe, often multiple coalescing >13. Percent area of white matter that bad demyelination, edema, dilated axons was estimated and used to determine a score using the following criteria: 0=normal; 1=minimal, 1-5% of total are affected; 2=mild, 5-25% of total area affected; 3=moderate, 26-50% of total area affected; 4=marked, 51-75% of total area affected; 5=>75% of total area affected.

[5] = system: GCB DLBCL cell-line Su-DHL-6; test: DLBCL xenograft model, Su-DHL-6 control tumor; assay type: in vivo, mice (NSG); details: 6 or 12 mg/kg IP once daily, started 13 days after transplantation
Method: as §1, §2

human MALT1 (L339-R719) = target: T1, human MALT1 (L339-R719) (Homo sapiens, UniProt Q9UDY8); test: Tryptophan fluorescence quenching assay; details: monomeric MALT1 (L339-R719), quenching of W580, 20° C.; FIG. 2a/b; read-out: binding affinity KD
T1 construct: human MALT1 (L339-R719) was used; only implied by the Ni-NTA purification; made in house; host or cells: Escherichia coli Rosetta (DE3)
T1 sequence (Q9UDY8 339-719): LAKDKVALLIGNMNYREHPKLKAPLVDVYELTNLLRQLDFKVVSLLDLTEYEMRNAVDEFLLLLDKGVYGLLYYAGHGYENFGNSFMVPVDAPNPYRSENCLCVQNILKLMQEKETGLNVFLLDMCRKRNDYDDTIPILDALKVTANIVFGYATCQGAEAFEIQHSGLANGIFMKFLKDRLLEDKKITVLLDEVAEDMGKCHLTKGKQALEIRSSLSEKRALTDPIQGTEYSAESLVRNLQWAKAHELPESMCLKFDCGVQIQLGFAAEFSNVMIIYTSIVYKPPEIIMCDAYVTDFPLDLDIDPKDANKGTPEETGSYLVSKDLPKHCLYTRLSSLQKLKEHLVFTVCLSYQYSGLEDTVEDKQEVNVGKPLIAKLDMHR
Method: For crystallization and tryptophan fluorescence quenching human MALT1 (L339-R719) was used.
Fluorescence quenching of tryptophan W580 was measured with the fluorescence spectrometer (FluoroMax-P, HORIBA Jobin Yvon) at an extinction wavelength of 285 nm and an emission wavelength of 329 nm. The measurement was performed by 2 μl titration steps of 400 μM, 800 μM, 4 mM, 8 mM thioridazine and mepazine stock solutions in H2O against 0.5 μM monomeric MALT1 (L339-R719) in 1.6 ml assay buffer (5 mM Hepes pH 7.0, 300 mM NaCl) at 20° C. The quenching assay of thioridazine and mepazine enantiomers was performed equally to racemates measurements.
For this assay advantage was taken from the fact that W580 is the only tryptophan residue in the MALT1Casp-Ig3 construct and is in close proximity to the bound tricyclic moiety of the phenothiazine derivatives.

GST-MALT1325-760 = target: T2, GST-MALT1325-760 (Homo sapiens, UniProt Q9UDY8); test: MALT1 paracaspase activity (fluorogenic cleavage) assay
T2 sequence (Q9UDY8 325-760 limits assumed): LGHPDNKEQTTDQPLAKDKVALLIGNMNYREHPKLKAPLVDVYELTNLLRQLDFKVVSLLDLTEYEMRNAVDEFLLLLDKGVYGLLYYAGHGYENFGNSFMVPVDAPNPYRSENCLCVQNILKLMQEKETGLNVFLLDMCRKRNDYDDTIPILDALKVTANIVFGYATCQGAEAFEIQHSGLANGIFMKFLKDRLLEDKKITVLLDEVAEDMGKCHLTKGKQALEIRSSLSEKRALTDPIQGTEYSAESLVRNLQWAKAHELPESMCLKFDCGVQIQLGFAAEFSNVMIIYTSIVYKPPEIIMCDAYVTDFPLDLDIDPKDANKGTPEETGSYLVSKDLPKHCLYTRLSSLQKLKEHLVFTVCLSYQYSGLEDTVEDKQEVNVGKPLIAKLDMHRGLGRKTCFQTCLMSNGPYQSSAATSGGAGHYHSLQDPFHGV

[6] = IP 8 mg/kg twice daily, histopathology, 8 mg/kg
[7] = IC50 (MALT1 cleavage assay), wt GST-MALT1325-760, Ac-LRSR-AMC substrate, FIG. 2c/d
[8] = IC50 on recombinant MALT1 (fluorogenic MALT1 cleavage assay), FIG. 3a/b

Compound	CIA-related inflammation [1]	bone resorption [1]	cartilage damage [1]	pannus formation [1]	growth of the ABC DLBCL (OCI-Ly10) tumor [2]	racemization on standing or in solution [3]	EAE induced weight loss ([4]; IP 8 mg/kg twice daily)	EAE severity (clinical score) ([4]; IP 8 mg/kg twice daily (16 mg/kg), started at clinical score of around 1)	demyelination in the spinal cord [4, 6]	inflammatory foci formation in the spinal cord [4, 6]	growth of the GCB DLBCL (Su-DHL-6) control tumor [5]	Kd (human MALT1 (L339-R719)) [µM]	IC50 (GST-MALT1325-760; [7]) [µM]	IC50 (GST-MALT1325-760; [8]) [µM]
CN1CCC[C@H](CN2c3ccccc3Sc3ccccc32)C1 [(S)-mepazine, 10-{[(3S)-1-methylpiperidin-3-yl]methyl}-10H-phenothiazine]	strong reduction; also recorded: decrease	strong reduction; also recorded: decrease	strong reduction; also recorded: decrease	strong reduction; also recorded: decrease	selective growth reduction	No racemization	reduced EAE induced weight loss	reduction of EAE severity	reduced; also recorded: inhibition	reduced; also recorded: inhibition	not affected			
CSc1ccc2c(c1)N(CCC1CCCCN1C)c1ccccc1S2 (single isomer, unassigned) [(S)-thioridazine]												21.3 ± 0.5	4.8 ± 0.9	4.83 ± 0.88
CSc1ccc2c(c1)N(CCC1CCCCN1C)c1ccccc1S2 (single isomer, unassigned) [(R)-thioridazine]												23 ± 0.6	5 ± 1.5	4.99 ± 1.52
